Assay results as given in patent US20110173718A1, “HERBICIDE TOLERANT PLANTS” (SYNGENTA CROP PROTECTION, INC., priority 2008, published 2011).

Tested on: weeds
Assay: Glasshouse weed control by HST/HPPD (mesotrione) mixtures, post-emergence
Format: in vivo
Details: for % damage, 1 g ai ha^−1 mesotrione / colby / % damage, no-mesotrione / % damage, mesotrione alone: post-emergence; for colby: difference to Colby expectation; for % damage, mesotrione alone: mesotrione 1 g/ha
Procedure: Weed seeds are planted out in trays containing suitable soil (for example 50% peat, 50% John Innes soil no 3) and grown in the glass house conditions under 24-27° C. day; 18-21° C. night and approximately a 14 h (or longer in UK summer) photoperiod. Humidity is ˜65% and light levels up to 2000 μmol/m^2 at bench level. Trays are sprayed with test chemicals dissolved in water with 0.2-0.25% X-77 surfactant and sprayed from a boom on a suitable track sprayer moving at about 2 mph in a suitable track sprayer (for example a DeVries spray chamber with the nozzle about 2 inches from the plant tops). Spray volume is suitably 500-1000 l/ha. Sprays are carried out both pre-emergence and over small plants at about 7-12 d post-emergence
Plants are assessed 14 DAT and herbicidal damage is scored on a scale from 0 to 100%. The HST inhibitor compound 2.30 (designated compound A in table 16 and 17), haloxydine (compound 1.1) and compound 2.13 (designated compound AE in tables 16 and 17) are sprayed at rates between 0 and 500 g/ha.

[1] = ALOMY, 16 g/ha + 1 g ai/ha mesotrione, 14 DAT
[2] = ALOMY, 16 g/ha + 1 g ai/ha mesotrione
[3] = ALOMY, 31 g/ha + 1 g ai/ha mesotrione, 14 DAT
[4] = ALOMY, 31 g/ha + 1 g ai/ha mesotrione
[5] = ALOMY, 63 g/ha + 1 g ai/ha mesotrione, 14 DAT
[6] = ALOMY, 63 g/ha + 1 g ai/ha mesotrione
[7] = ALOMY, 125 g/ha + 1 g ai/ha mesotrione, 14 DAT
[8] = ALOMY, 125 g/ha + 1 g ai/ha mesotrione
[9] = ALOMY, 250 g/ha + 1 g ai/ha mesotrione, 14 DAT
[10] = ALOMY, 250 g/ha + 1 g ai/ha mesotrione
[11] = ALOMY, 500 g/ha + 1 g ai/ha mesotrione, 14 DAT
[12] = ALOMY, 500 g/ha + 1 g ai/ha mesotrione
[13] = ECHCG, 16 g/ha + 1 g ai/ha mesotrione, 14 DAT
[14] = ECHCG, 16 g/ha + 1 g ai/ha mesotrione
[15] = ECHCG, 31 g/ha + 1 g ai/ha mesotrione, 14 DAT
[16] = ECHCG, 31 g/ha + 1 g ai/ha mesotrione
[17] = ECHCG, 63 g/ha + 1 g ai/ha mesotrione, 14 DAT
[18] = ECHCG, 63 g/ha + 1 g ai/ha mesotrione
[19] = ECHCG, 125 g/ha + 1 g ai/ha mesotrione, 14 DAT
[20] = ECHCG, 125 g/ha + 1 g ai/ha mesotrione
[21] = ECHCG, 250 g/ha + 1 g ai/ha mesotrione, 14 DAT
[22] = ECHCG, 250 g/ha + 1 g ai/ha mesotrione
[23] = ECHCG, 500 g/ha + 1 g ai/ha mesotrione, 14 DAT
[24] = ECHCG, 500 g/ha + 1 g ai/ha mesotrione
[25] = SETFA, 16 g/ha + 1 g ai/ha mesotrione, 14 DAT
[26] = SETFA, 16 g/ha + 1 g ai/ha mesotrione
[27] = SETFA, 31 g/ha + 1 g ai/ha mesotrione, 14 DAT
[28] = SETFA, 31 g/ha + 1 g ai/ha mesotrione
[29] = SETFA, 63 g/ha + 1 g ai/ha mesotrione, 14 DAT
[30] = SETFA, 63 g/ha + 1 g ai/ha mesotrione
[31] = SETFA, 125 g/ha + 1 g ai/ha mesotrione, 14 DAT
[32] = SETFA, 125 g/ha + 1 g ai/ha mesotrione
[33] = SETFA, 250 g/ha + 1 g ai/ha mesotrione, 14 DAT
[34] = SETFA, 250 g/ha + 1 g ai/ha mesotrione
[35] = SETFA, 500 g/ha + 1 g ai/ha mesotrione, 14 DAT
[36] = SETFA, 500 g/ha + 1 g ai/ha mesotrione

O=c1c(-c2c(F)ccc(F)c2Cl)c(O)c2cccnc2n1CC(F)F [Compound 2.13]
% damage, 1 g ai ha^−1 mesotrione [1]: 0%
colby [2]: 0
% damage, no-mesotrione (ALOMY, 16 g/ha, 14 DAT): 0%
% damage, 1 g ai ha^−1 mesotrione [3]: 2%
colby [4]: 2
% damage, no-mesotrione (ALOMY, 31 g/ha, 14 DAT): 0%
% damage, 1 g ai ha^−1 mesotrione [5]: 3%
colby [6]: 3
% damage, no-mesotrione (ALOMY, 63 g/ha, 14 DAT): 0%
% damage, 1 g ai ha^−1 mesotrione [7]: 0%
colby [8]: 0
% damage, no-mesotrione (ALOMY, 125 g/ha, 14 DAT): 0%
% damage, 1 g ai ha^−1 mesotrione [9]: 3%
colby [10]: 2
% damage, no-mesotrione (ALOMY, 250 g/ha, 14 DAT): 2%
% damage, 1 g ai ha^−1 mesotrione [11]: 5%
colby [12]: −2
% damage, no-mesotrione (ALOMY, 500 g/ha, 14 DAT): 7%
% damage, 1 g ai ha^−1 mesotrione [13]: 5%
colby [14]: −3
% damage, no-mesotrione (ECHCG, 16 g/ha, 14 DAT): 0%
% damage, 1 g ai ha^−1 mesotrione [15]: 5%
colby [16]: −3
% damage, no-mesotrione (ECHCG, 31 g/ha, 14 DAT): 0%
% damage, 1 g ai ha^−1 mesotrione [17]: 8%
colby [18]: 0
% damage, no-mesotrione (ECHCG, 63 g/ha, 14 DAT): 0%
% damage, 1 g ai ha^−1 mesotrione [19]: 15%
colby [20]: 7
% damage, no-mesotrione (ECHCG, 125 g/ha, 14 DAT): 0%
% damage, 1 g ai ha^−1 mesotrione [21]: 22%
colby [22]: 13
% damage, no-mesotrione (ECHCG, 250 g/ha, 14 DAT): 0%
% damage, 1 g ai ha^−1 mesotrione [23]: 20%
colby [24]: 12
% damage, no-mesotrione (ECHCG, 500 g/ha, 14 DAT): 0%
% damage, 1 g ai ha^−1 mesotrione [25]: 0%
colby [26]: 0
% damage, no-mesotrione (SETFA, 16 g/ha, 14 DAT): 0%
% damage, 1 g ai ha^−1 mesotrione [27]: 0%
colby [28]: 0
% damage, no-mesotrione (SETFA, 31 g/ha, 14 DAT): 0%
% damage, 1 g ai ha^−1 mesotrione [29]: 0%
colby [30]: 0
% damage, no-mesotrione (SETFA, 63 g/ha, 14 DAT): 0%
% damage, 1 g ai ha^−1 mesotrione [31]: 0%
colby [32]: 0
% damage, no-mesotrione (SETFA, 125 g/ha, 14 DAT): 0%
% damage, 1 g ai ha^−1 mesotrione [33]: 0%
colby [34]: 0
% damage, no-mesotrione (SETFA, 250 g/ha, 14 DAT): 0%
% damage, 1 g ai ha^−1 mesotrione [35]: 0%
colby [36]: 0
% damage, no-mesotrione (SETFA, 500 g/ha, 14 DAT): 0%

CC(C)C(=O)Oc1c(-c2c(F)ccc(Br)c2Cl)c(=O)n(CC(F)F)c2nccnc12 [Compound 2.30]
% damage, 1 g ai ha^−1 mesotrione [1]: 2%
colby [2]: 0
% damage, no-mesotrione (ALOMY, 16 g/ha, 14 DAT): 2%
% damage, 1 g ai ha^−1 mesotrione [3]: 3%
colby [4]: 0
% damage, no-mesotrione (ALOMY, 31 g/ha, 14 DAT): 3%
% damage, 1 g ai ha^−1 mesotrione [5]: 10%
colby [6]: 5
% damage, no-mesotrione (ALOMY, 63 g/ha, 14 DAT): 5%
% damage, 1 g ai ha^−1 mesotrione [7]: 20%
colby [8]: 7
% damage, no-mesotrione (ALOMY, 125 g/ha, 14 DAT): 13%
% damage, 1 g ai ha^−1 mesotrione [9]: 22%
colby [10]: 7
% damage, no-mesotrione (ALOMY, 250 g/ha, 14 DAT): 15%
% damage, 1 g ai ha^−1 mesotrione [11]: 35%
colby [12]: 12
% damage, no-mesotrione (ALOMY, 500 g/ha, 14 DAT): 23%
% damage, 1 g ai ha^−1 mesotrione [13]: 17%
colby [14]: −2
% damage, no-mesotrione (ECHCG, 16 g/ha, 14 DAT): 12%
% damage, 1 g ai ha^−1 mesotrione [15]: 38%
colby [16]: 13
% damage, no-mesotrione (ECHCG, 31 g/ha, 14 DAT): 18%
% damage, 1 g ai ha^−1 mesotrione [17]: 42%
colby [18]: −5
% damage, no-mesotrione (ECHCG, 63 g/ha, 14 DAT): 42%
% damage, 1 g ai ha^−1 mesotrione [19]: 53%
colby [20]: −7
% damage, no-mesotrione (ECHCG, 125 g/ha, 14 DAT): 57%
% damage, 1 g ai ha^−1 mesotrione [21]: 68%
colby [22]: 0
% damage, no-mesotrione (ECHCG, 250 g/ha, 14 DAT): 65%
% damage, 1 g ai ha^−1 mesotrione [23]: 75%
colby [24]: 6
% damage, no-mesotrione (ECHCG, 500 g/ha, 14 DAT): 67%
% damage, 1 g ai ha^−1 mesotrione [25]: 18%
colby [26]: −5
% damage, no-mesotrione (SETFA, 16 g/ha, 14 DAT): 23%
% damage, 1 g ai ha^−1 mesotrione [27]: 42%
colby [28]: 10
% damage, no-mesotrione (SETFA, 31 g/ha, 14 DAT): 32%
% damage, 1 g ai ha^−1 mesotrione [29]: 42%
colby [30]: 8
% damage, no-mesotrione (SETFA, 63 g/ha, 14 DAT): 33%
% damage, 1 g ai ha^−1 mesotrione [31]: 62%
colby [32]: 5
% damage, no-mesotrione (SETFA, 125 g/ha, 14 DAT): 57%
% damage, 1 g ai ha^−1 mesotrione [33]: 75%
colby [34]: 10
% damage, no-mesotrione (SETFA, 250 g/ha, 14 DAT): 65%
% damage, 1 g ai ha^−1 mesotrione [35]: 75%
colby [36]: 5
% damage, no-mesotrione (SETFA, 500 g/ha, 14 DAT): 70%

O=c1c(Cl)c(F)[nH]c(F)c1Cl [Haloxidine]
% damage, 1 g ai ha^−1 mesotrione [1]: 23%
colby [2]: 10
% damage, no-mesotrione (ALOMY, 16 g/ha, 14 DAT): 13%
% damage, 1 g ai ha^−1 mesotrione [3]: 33%
colby [4]: 7
% damage, no-mesotrione (ALOMY, 31 g/ha, 14 DAT): 27%
% damage, 1 g ai ha^−1 mesotrione [5]: 68%
colby [6]: 15
% damage, no-mesotrione (ALOMY, 63 g/ha, 14 DAT): 53%
% damage, 1 g ai ha^−1 mesotrione [7]: 83%
colby [8]: 5
% damage, no-mesotrione (ALOMY, 125 g/ha, 14 DAT): 78%
% damage, 1 g ai ha^−1 mesotrione [9]: 92%
colby [10]: 2
% damage, no-mesotrione (ALOMY, 250 g/ha, 14 DAT): 90%
% damage, 1 g ai ha^−1 mesotrione [11]: 95%
colby [12]: 0
% damage, no-mesotrione (ALOMY, 500 g/ha, 14 DAT): 95%
% damage, 1 g ai ha^−1 mesotrione [13]: 57%
colby [14]: 18
% damage, no-mesotrione (ECHCG, 16 g/ha, 14 DAT): 33%
% damage, 1 g ai ha^−1 mesotrione [15]: 67%
colby [16]: 11
% damage, no-mesotrione (ECHCG, 31 g/ha, 14 DAT): 52%
% damage, 1 g ai ha^−1 mesotrione [17]: 75%
colby [18]: 15
% damage, no-mesotrione (ECHCG, 63 g/ha, 14 DAT): 57%
% damage, 1 g ai ha^−1 mesotrione [19]: 78%
colby [20]: 6
% damage, no-mesotrione (ECHCG, 125 g/ha, 14 DAT): 70%
% damage, 1 g ai ha^−1 mesotrione [21]: 97%
colby [22]: 12
% damage, no-mesotrione (ECHCG, 250 g/ha, 14 DAT): 83%
% damage, 1 g ai ha^−1 mesotrione [23]: 100%
colby [24]: 2
% damage, no-mesotrione (ECHCG, 500 g/ha, 14 DAT): 98%
% damage, 1 g ai ha^−1 mesotrione [25]: 27%
colby [26]: −15
% damage, no-mesotrione (SETFA, 16 g/ha, 14 DAT): 42%
% damage, 1 g ai ha^−1 mesotrione [27]: 82%
colby [28]: 13
% damage, no-mesotrione (SETFA, 31 g/ha, 14 DAT): 68%
% damage, 1 g ai ha^−1 mesotrione [29]: 92%
colby [30]: 12
% damage, no-mesotrione (SETFA, 63 g/ha, 14 DAT): 80%
% damage, 1 g ai ha^−1 mesotrione [31]: 97%
colby [32]: 3
% damage, no-mesotrione (SETFA, 125 g/ha, 14 DAT): 93%
% damage, 1 g ai ha^−1 mesotrione [33]: 100%
colby [34]: 0
% damage, no-mesotrione (SETFA, 250 g/ha, 14 DAT): 100%
% damage, 1 g ai ha^−1 mesotrione [35]: 100%
colby [36]: 0
% damage, no-mesotrione (SETFA, 500 g/ha, 14 DAT): 100%

CS(=O)(=O)c1ccc(C(=O)C2C(=O)CCCC2=O)c([N+](=O)[O-])c1 [Mesotrione, mesotrione, reference compound]
damage (1 g/ha, 14 DAT, pre- and post-emergence sprays): < 10%
% damage, mesotrione alone (ALOMY, 14 DAT): 0%
% damage, mesotrione alone (ECHCG, 14 DAT): 8%
% damage, mesotrione alone (SETFA, 14 DAT): 0%
